# Laboratory results: ChEMBL document CHEMBL1126344, “Substituted penta- and hexapeptides as potent inhibitors of herpes simplex virus type 2 ribonucleotide reductase” (Bioorg Med Chem Lett, 1992)
# Non-standard residues stand in square brackets, D forms with d. Residues, ends and D or L forms follow the SMILES beside them. *: point of attachment. Dibenzylacetyl = O=C(C(Cc1ccccc1)Cc1ccccc1)*; NMeY = CN[C@@H](Cc1ccc(O)cc1)C(=O)O; tBuAla = CC(C)(C)C[C@H](N)C(=O)O; AllylGly = C=CC[C@H](N)C(=O)O; Pyrrolidide = C1CCN(*)C1; NHBn = c1ccc(CN*)cc1
# Assays:
# [1] = Inhibitory activity of YAGAVVNDL against Herpes Simplex Virus type 2 (HSV-2) ribonucleotide reductase determined as control; parameters: species or system Human alphaherpesvirus 2
# Human alphaherpesvirus 2 = experiment: Relative potency to that of YAGAVVNDL against Herpes Simplex Virus type 2 ribonucleotide reductase
# [2] = The compound was tested in vitro for inhibitory activity against Herpes Simplex Virus type 2 ribonucleotide reductase; parameters: species or system Human alphaherpesvirus 2
SMILES,IC50 [1] [µM],Relative potency (Human alphaherpesvirus 2),IC50 [2] [µM]
CC(C)C[C@H](NC(=O)[C@H](CC(=O)O)NC(=O)[C@H](CC(N)=O)NC(=O)[C@@H](NC(=O)[C@@H](NC(=O)CC(c1ccccc1)c1ccccc1)C(C)C)C(C)C)C(=O)O,60,6,10
CC(C)C[C@H](NC(=O)[C@H](CC(=O)O)NC(=O)[C@H](CC(N)=O)NC(=O)[C@@H](NC(=O)[C@@H](NC(=O)C(C)C)C(C)C)C(C)C)C(=O)O,5,0.17,30
CC(C)C[C@H](NC(=O)[C@H](CC(=O)O)NC(=O)[C@H](CC(N)=O)NC(=O)[C@@H](NC(=O)[C@@H](NC(=O)C(Cc1ccccc1)Cc1ccccc1)C(C)C)C(C)C)C(=O)O,19,38,0.5
CC(C)C[C@H](NC(=O)[C@H](CC(=O)O)NC(=O)[C@H](CC(N)=O)NC(=O)[C@@H](NC(=O)[C@@H](NC(=O)CCc1ccccc1)C(C)C)C(C)C)C(=O)O,17,1.5,11
CC(C)C[C@H](NC(=O)[C@H](CC(=O)O)NC(=O)[C@H](CC(N)=O)NC(=O)[C@@H](NC(=O)[C@@H](NC(=O)N(Cc1ccccc1)Cc1ccccc1)C(C)C)C(C)C)C(=O)O,24,2.2,11
CC(C)C[C@H](NC(=O)[C@H](CC(=O)O)NC(=O)[C@H](CC(N)=O)NC(=O)[C@@H](NC(=O)[C@@H](NC(=O)N(c1ccccc1)c1ccccc1)C(C)C)C(C)C)C(=O)O,24,0.14,170
CC(C)C[C@H](NC(=O)[C@H](CC(=O)O)NC(=O)[C@H](CC(N)=O)NC(=O)[C@@H](NC(=O)[C@@H](NC(=O)CCc1ccc(O)cc1)C(C)C)C(C)C)C(=O)O,20,1,21
CC(C)C[C@H](NC(=O)[C@H](CC(=O)O)NC(=O)[C@H](CC(N)=O)NC(=O)[C@@H](NC(=O)[C@@H](NC(=O)C(c1ccccc1)c1ccccc1)C(C)C)C(C)C)C(=O)O,24,0.27,90
CC(C)C[C@H](NC(=O)[C@H](CC(=O)O)NC(=O)[C@H](CC(N)=O)NC(=O)[C@@H](NC(=O)[C@@H](NC(=O)C(Cc1ccc(O)cc1)Cc1ccc(O)cc1)C(C)C)C(C)C)C(=O)O,35,5.4,6.5
CC(C)C[C@H](NC(=O)[C@H](CC(=O)O)NC(=O)[C@H](CC(N)=O)NC(=O)[C@@H](NC(=O)[C@@H](NC(=O)C(C)(C)C)C(C)C)C(C)C)C(=O)O,5,0.24,21
CC(C)C[C@H](NC(=O)[C@H](CC(=O)O)NC(=O)[C@H](CC(=O)NCc1ccccc1)NC(=O)[C@@H](NC(=O)[C@@H](NC(=O)C(Cc1ccccc1)Cc1ccccc1)C(C)C)C(C)C)C(=O)O (Dibenzylacetyl-VVD(NHBn)DL-OH),22,55,0.4
CC(C)[C@H](NC(=O)C(Cc1ccccc1)Cc1ccccc1)C(=O)N[C@H](C(=O)N[C@@H](CC(=O)NCc1ccccc1)C(=O)N[C@@H](CC(=O)O)C(=O)N[C@@H](CC(C)(C)C)C(=O)O)C(C)C (Dibenzylacetyl-VVD(NHBn)D[tBuAla]-OH),10,50,0.2
CC(C)[C@H](NC(=O)C(Cc1ccccc1)Cc1ccccc1)C(=O)N[C@H](C(=O)N[C@@H](CC(=O)N(C)C)C(=O)N[C@@H](CC(=O)O)C(=O)N[C@@H](CC(C)(C)C)C(=O)O)C(C)C (Dibenzylacetyl-VVD(NMe2)D[tBuAla]-OH),21,70,0.3
CC(C)[C@H](NC(=O)C(Cc1ccccc1)Cc1ccccc1)C(=O)N[C@H](C(=O)N[C@@H](CC(N)=O)C(=O)N[C@@H](CC(=O)O)C(=O)N[C@@H](CC(C)(C)C)C(=O)O)C(C)C (Dibenzylacetyl-VVND[tBuAla]-OH),12,120,0.1
CC(C)C[C@H](NC(=O)[C@H](CC(=O)O)NC(=O)[C@H](CC(=O)N(C)C)NC(=O)[C@@H](NC(=O)[C@@H](NC(=O)[C@@H](N)CC(=O)O)C(C)C)C(C)C)C(=O)O (H-DVVD(NMe2)DL-OH),9.5,63,0.15
CC(C)C[C@H](NC(=O)[C@H](CC(=O)O)NC(=O)[C@H](CC(=O)N1CCCC1)NC(=O)[C@@H](NC(=O)[C@@H](NC(=O)[C@@H](N)CC(=O)O)C(C)C)C(C)C)C(=O)O (H-DVVD(Pyrrolidide)DL-OH),32,32,1
COC(=O)C[C@H](NC(=O)[C@@H](NC(=O)[C@@H](NC(=O)[C@@H](N)Cc1ccccc1)C(C)C)C(C)C)C(=O)N[C@@H](CC(=O)O)C(=O)N[C@@H](CC(C)C)C(=O)O (H-FVVD(OMe)DL-OH),27,14,2
C=CC[C@H](NC(=O)[C@H](CC(=O)O)NC(=O)[C@H](CC(N)=O)NC(=O)[C@@H](NC(=O)[C@@H](NC(=O)[C@@H](N)Cc1ccc(O)cc1)C(C)C)C(C)C)C(=O)O (H-YVVND[AllylGly]-OH),22,–,> 430
CN[C@@H](Cc1ccc(O)cc1)C(=O)N[C@H](C(=O)N[C@H](C(=O)N[C@@H](CC(N)=O)C(=O)N[C@@H](CC(=O)O)C(=O)N[C@@H](CC(C)C)C(=O)O)C(C)C)C(C)C (H-[NMeY]VVNDL-OH),15,–,–
CC(C)C[C@H](NC(=O)[C@H](CC(=O)O)NC(=O)[C@H](CC(N)=O)NC(=O)[C@@H](NC(=O)[C@@H](NC(=O)[C@@](C)(N)Cc1ccc(O)cc1)C(C)C)C(C)C)C(=O)O (stereo in doubt; form 1) [listing 1 of 2 here],30,–,58
CC(C)C[C@H](NC(=O)[C@H](CC(=O)O)NC(=O)[C@H](CC(N)=O)NC(=O)[C@@H](NC(=O)[C@@H](NC(=O)C(Cc1ccccc1)Cc1ccc(O)cc1)C(C)C)C(C)C)C(=O)O (stereo in doubt; form 1),–,21,–
CC(C)C[C@H](NC(=O)[C@H](CC(=O)O)NC(=O)[C@H](CC(N)=O)NC(=O)[C@@H](NC(=O)[C@@H](NC(=O)[C@@](C)(N)Cc1ccc(O)cc1)C(C)C)C(C)C)C(=O)O (stereo in doubt; form 1) [listing 2 of 2 here],–,0.52,–
CC(C)C[C@H](NC(=O)[C@H](CC(=O)O)NC(=O)[C@H](CC(N)=O)NC(=O)[C@@H](NC(=O)[C@@H](NC(=O)C(Cc1ccccc1)Cc1ccc(O)cc1)C(C)C)C(C)C)C(=O)O (stereo in doubt; form 2) [listing 1 of 2 here],9,–,1.5
CC(C)C[C@H](NC(=O)[C@H](CC(=O)O)NC(=O)[C@H](CC(N)=O)NC(=O)[C@@H](NC(=O)[C@@H](NC(=O)[C@@](C)(N)Cc1ccc(O)cc1)C(C)C)C(C)C)C(=O)O (stereo in doubt; form 2) [listing 1 of 2 here],–,–,120
CC(C)C[C@H](NC(=O)[C@H](CC(=O)O)NC(=O)[C@H](CC(N)=O)NC(=O)[C@@H](NC(=O)[C@@H](NC(=O)C(Cc1ccccc1)Cc1ccc(O)cc1)C(C)C)C(C)C)C(=O)O (stereo in doubt; form 2) [listing 2 of 2 here],–,6,–
CC(C)C[C@H](NC(=O)[C@H](CC(=O)O)NC(=O)[C@H](CC(N)=O)NC(=O)[C@@H](NC(=O)[C@@H](NC(=O)[C@@](C)(N)Cc1ccc(O)cc1)C(C)C)C(C)C)C(=O)O (stereo in doubt; form 2) [listing 2 of 2 here],–,0.25,–
